Measured values reported in paper PMC2248166, “Quantitative peptide binding motifs for 19 human and mouse MHC class I molecules derived using positional scanning combinatorial peptide libraries” (Immunome Research, 2008).
Where a SMILES comes first, the peptide text is derived from it.

Experiments:
Experiment in all cases: biochemical
Assay type in all cases: binding
HLA B*0801 = HLA B*0801 (Homo sapiens, UniProt P01889, A93T/A95T/D138N/E176V/E187T/K202T/Q94N/R180D/S35A/V36M/Y33D/Y91F)
HLA B*1501 = HLA B*1501 (Homo sapiens, UniProt P01889, A329T/A93T/A95T/C349S/D201E/D98Y/E187L/E204Q/E69M/E70A/K202T/N87E/Q94N/R155S/R180W/S121R/S35A/S48A/V306I/V36M/Y140S/Y91S)
HLA A*3001 = HLA A*3001 (Homo sapiens, UniProt P04439, D140H/D185E/E176W/F33S/G80R/H175R/K168Q/R138E/R41S)
Chain of HLA A*3001 (P04439 25-365 limits assumed, stated change not applied): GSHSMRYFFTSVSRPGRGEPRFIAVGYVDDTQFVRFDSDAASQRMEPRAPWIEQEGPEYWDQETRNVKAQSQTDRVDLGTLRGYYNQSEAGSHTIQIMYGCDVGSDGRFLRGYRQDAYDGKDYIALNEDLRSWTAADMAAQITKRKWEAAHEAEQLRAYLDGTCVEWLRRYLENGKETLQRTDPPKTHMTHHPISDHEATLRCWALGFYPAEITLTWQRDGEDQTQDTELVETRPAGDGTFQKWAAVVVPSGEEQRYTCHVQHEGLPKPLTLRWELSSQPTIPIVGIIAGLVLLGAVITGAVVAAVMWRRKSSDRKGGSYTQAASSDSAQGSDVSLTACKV

HLA B*1503 = HLA B*1503 (Homo sapiens, UniProt P01889, A329T/A93T/A95T/C349S/D201E/D98Y/E187L/E204Q/K202T/N87E/Q94N/R155S/R180L/S121R/S35A/V306I/V36M/Y140S/Y91S)

| Compound | IC50 (HLA B*0801) | IC50 (HLA B*1501) | IC50 (HLA A*3001) | IC50 (HLA B*1503) |
| --- | --- | --- | --- | --- |
| CC(C)[C@H](NC(=O)[C@H](C)NC(=O)[C@H](CO)NC(=O)[C@H](Cc1ccc(O)cc1)NC(=O)[C@H](CCCNC(=N)N)NC(=O)CNC(=O)[C@H](Cc1ccc(O)cc1)NC(=O)[C@@H](NC(=O)[C@@H](N)CCCCN)C(C)C)C(=O)O [3102.0117] (H-KVYGRYSAV-OH) | 4.2 nM | 95 nM | – | – |
| CC(C)C[C@H](NC(=O)[C@H](C)NC(=O)[C@H](CCCNC(=N)N)NC(=O)[C@H](Cc1c[nH]cn1)NC(=O)[C@H](CC(C)C)NC(=O)[C@H](Cc1c[nH]c2ccccc12)NC(=O)[C@H](CCCNC(=N)N)NC(=O)[C@@H](NC(=O)[C@@H](N)Cc1ccccc1)C(C)C)C(=O)O [3102.0526] (H-FVRWLHRAL-OH) | 1 nM | 16 nM | – | – |
| CC[C@H](C)[C@H](NC(=O)[C@H](CO)NC(=O)[C@H](CCCNC(=N)N)NC(=O)[C@H](CO)NC(=O)[C@H](CCSC)NC(=O)[C@H](CO)NC(=O)[C@H](CCCNC(=N)N)NC(=O)[C@@H](NC(=O)[C@@H](N)CO)[C@@H](C)CC)C(=O)O [3102.0527] (H-SIRSMSRSI-OH) | 77 nM | 363 nM | – | – |
| CC[C@H](C)[C@H](NC(=O)[C@H](CCCCN)NC(=O)[C@H](CC(N)=O)NC(=O)[C@H](CCCCN)NC(=O)[C@@H](NC(=O)[C@@H](N)Cc1ccccc1)[C@@H](C)CC)C(=O)N[C@@H](Cc1c[nH]cn1)C(=O)N[C@@H](CC(C)C)C(=O)N[C@@H](CC(C)C)C(=O)O [3102.0551] (H-FIKNKIHLL-OH) | 0.82 nM | 98 nM | – | – |
| CSCC[C@H](N)C(=O)N[C@@H](Cc1ccccc1)C(=O)N[C@@H](CCCNC(=N)N)C(=O)N[C@@H](CCCCN)C(=O)N[C@@H](CCCCN)C(=O)N[C@@H](CCCNC(=N)N)C(=O)N[C@@H](CC(C)C)C(=O)N[C@@H](Cc1ccccc1)C(=O)N[C@@H](CC(C)C)C(=O)O [3102.0580] (H-MFRKKRLFL-OH) | 1.1 nM | – | 10 nM | – |
| CC(C)[C@H](NC(=O)[C@H](Cc1ccccc1)NC(=O)[C@H](CC(=O)O)NC(=O)[C@H](CC(N)=O)NC(=O)[C@H](CCCCN)NC(=O)[C@@H]1CCCN1C(=O)[C@@H](N)Cc1ccccc1)C(=O)N[C@@H](CO)C(=O)N[C@@H](Cc1ccccc1)C(=O)O [3102.0637] (H-FPKNDFVSF-OH) | 16 nM | 10 nM | – | 4.2 nM |
| CC[C@H](C)[C@H](NC(=O)[C@@H](N)CC(C)C)C(=O)N[C@@H](CCCNC(=N)N)C(=O)N[C@@H](CC(N)=O)C(=O)N[C@@H](CCCCN)C(=O)N[C@@H](CCCNC(=N)N)C(=O)N[C@@H](CC(C)C)C(=O)N[C@@H](CO)C(=O)N[C@@H](CC(C)C)C(=O)O [3102.0638] (H-LIRNKRLSL-OH) | 0.78 nM | 455 nM | – | – |
| CC[C@H](C)[C@H](NC(=O)[C@@H](N)Cc1ccccc1)C(=O)N[C@@H](Cc1ccccc1)C(=O)N[C@@H](CC(C)C)C(=O)N[C@@H](CCCCN)C(=O)N[C@@H](CCCCN)C(=O)N[C@@H](CC(N)=O)C(=O)N[C@@H](CCC(=O)O)C(=O)N[C@@H](CC(C)C)C(=O)O [3102.0673] (H-FIFLKKNEL-OH) | 97 nM | – | 44 nM | – |
| CC[C@H](C)[C@H](NC(=O)[C@@H](N)Cc1ccccc1)C(=O)N[C@@H](CCCNC(=N)N)C(=O)N[C@@H](Cc1ccc(O)cc1)C(=O)N[C@@H](CCCNC(=N)N)C(=O)N[C@@H](CCSC)C(=O)N[C@@H](Cc1c[nH]cn1)C(=O)N1CCC[C@H]1C(=O)N[C@@H](CCSC)C(=O)O [3102.0768] (H-FIRYRMHPM-OH) | 0.21 nM | 1.2 nM | – | 22 nM |
| CC[C@H](C)[C@H](NC(=O)[C@@H](N)CC(C)C)C(=O)NCC(=O)N[C@@H](C)C(=O)N[C@@H](CCCNC(=N)N)C(=O)N[C@@H](CCCNC(=N)N)C(=O)N[C@H](C(=O)N[C@@H](CO)C(=O)N[C@@H](Cc1ccccc1)C(=O)O)[C@@H](C)O [3102.0774] (H-LIGARRTSF-OH) | 1.5 nM | 40 nM | – | – |
| CC[C@H](C)[C@H](NC(=O)[C@H](CC(C)C)NC(=O)[C@@H](N)CC(N)=O)C(=O)N[C@H](C(=O)N[C@@H](CC(C)C)C(=O)N[C@@H](C)C(=O)N[C@H](C(=O)N[C@@H](CO)C(=O)N[C@@H](Cc1ccccc1)C(=O)O)C(C)C)[C@@H](C)O [3102.0798] (H-NLITLAVSF-OH) | 328 nM | 81 nM | – | 15 nM |
| CC(C)C[C@H](NC(=O)[C@H](CCC(=O)O)NC(=O)[C@H](CC(N)=O)NC(=O)[C@H](CCCNC(=N)N)NC(=O)[C@H](CC(=O)O)NC(=O)[C@H](CCCCN)NC(=O)[C@H](CC(C)C)NC(=O)[C@@H](N)CC(C)C)C(=O)N[C@@H](Cc1ccccc1)C(=O)O [3102.0842] (H-LLKDRNELF-OH) | 41 nM | 1.8 nM | – | 16 nM |
| CC[C@H](C)[C@H](NC(=O)[C@H](CCCNC(=N)N)NC(=O)[C@H](Cc1c[nH]cn1)NC(=O)[C@H](CS)NC(=O)[C@@H](NC(=O)[C@@H](N)CCSC)C(C)C)C(=O)N[C@@H](CC(C)C)C(=O)N[C@H](C(=O)N[C@@H](Cc1ccc(O)cc1)C(=O)O)[C@@H](C)O [3102.0849] (H-MVCHRILTY-OH) | 220 nM | 70 nM | – | 28 nM |
| CC[C@H](C)[C@H](NC(=O)[C@H](C)N)C(=O)N[C@@H](CC(N)=O)C(=O)N[C@@H](CC(N)=O)C(=O)N[C@@H](CCCNC(=N)N)C(=O)N[C@H](C(=O)N[C@@H](CS)C(=O)N[C@H](C(=O)N[C@@H](CCSC)C(=O)O)C(C)C)[C@@H](C)CC [3102.0865] (H-AINNRICVM-OH) | 424 nM | 51 nM | – | – |
| CC(C)C[C@H](NC(=O)[C@@H](N)CC(C)C)C(=O)N[C@@H](CCCCN)C(=O)N1CCC[C@H]1C(=O)N[C@@H](CCCNC(=N)N)C(=O)N[C@@H](CS)C(=O)N[C@@H](CC(N)=O)C(=O)N1CCC[C@H]1C(=O)N[C@@H](C)C(=O)O [3102.0901] (H-LLKPRCNPA-OH) | 1.2 nM | 21 nM | – | – |
| CSCC[C@H](NC(=O)[C@@H](N)CO)C(=O)N[C@@H](Cc1c[nH]cn1)C(=O)N[C@@H](Cc1ccccc1)C(=O)N[C@@H](Cc1ccc(O)cc1)C(=O)NCC(=O)N[C@@H](Cc1c[nH]c2ccccc12)C(=O)N[C@@H](CO)C(=O)N[C@@H](CC(C)C)C(=O)O [3102.0946] (H-SMHFYGWSL-OH) | 2.9 nM | 63 nM | – | – |
| CC[C@H](C)[C@H](NC(=O)[C@H](CS)NC(=O)[C@H](CS)NC(=O)[C@H](Cc1c[nH]cn1)NC(=O)[C@H](CCCNC(=N)N)NC(=O)[C@H](CO)NC(=O)[C@@H](NC(=O)[C@H](CCSC)NC(=O)[C@@H](N)CO)[C@@H](C)CC)C(=O)O [3102.0973] (H-SMISRHCCI-OH) | 1.3 nM | 81 nM | – | – |
| CC[C@H](C)[C@H](NC(=O)[C@@H]1CCCN1C(=O)[C@H](CC(C)C)NC(=O)[C@H](Cc1ccccc1)NC(=O)[C@H](CO)NC(=O)[C@H](CCSC)NC(=O)[C@H](CCCCN)NC(=O)[C@H](CO)NC(=O)[C@@H](N)CCC(=O)O)C(=O)O [3102.0979] (H-ESKMSFLPI-OH) | 1.1 nM | 358 nM | – | – |
| CC[C@H](C)[C@H](NC(=O)[C@H](CCCCN)NC(=O)[C@@H]1CCCN1C(=O)[C@H](CCCNC(=N)N)NC(=O)[C@@H](NC(=O)[C@@H](N)CC(C)C)[C@@H](C)CC)C(=O)N[C@@H](CC(C)C)C(=O)N[C@@H](CO)C(=O)N[C@@H](CCSC)C(=O)O [3102.0983] (H-LIRPKILSM-OH) | 0.55 nM | 10 nM | – | – |
| CC[C@H](C)[C@H](NC(=O)[C@H](Cc1ccccc1)NC(=O)[C@H](CCSC)NC(=O)[C@H](Cc1ccccc1)NC(=O)[C@H](CCCCN)NC(=O)[C@H](CC(N)=O)NC(=O)[C@H](CCCNC(=N)N)NC(=O)[C@@H](NC(=O)[C@@H](N)CCCNC(=N)N)[C@@H](C)CC)C(=O)O [3102.0998] (H-RIRNKFMFI-OH) | 1.6 nM | – | 0.069 nM | – |
| CC[C@H](C)[C@H](NC(=O)[C@H](CO)NC(=O)[C@@H](N)CCCNC(=N)N)C(=O)N[C@@H](CCCNC(=N)N)C(=O)N[C@@H](CCCCN)C(=O)N[C@@H](Cc1ccccc1)C(=O)N[C@@H](CC(N)=O)C(=O)N[C@H](C(=O)N[C@@H](CCSC)C(=O)O)[C@@H](C)O [3102.1003] (H-RSIRKFNTM-OH) | 17 nM | 4.4 nM | – | – |
| CC[C@H](C)[C@H](NC(=O)[C@@H](NC(=O)[C@H](CC(C)C)NC(=O)CNC(=O)[C@H](C)NC(=O)[C@H](Cc1ccc(O)cc1)NC(=O)[C@H](CCCCN)NC(=O)[C@H](CC(C)C)NC(=O)[C@@H](N)CC(C)C)[C@@H](C)O)C(=O)O [3102.1023] (H-LLKYAGLTI-OH) | 105 nM | 4.5 nM | – | – |
| CC(C)[C@H](NC(=O)[C@H](CCCNC(=N)N)NC(=O)[C@@H](N)Cc1ccccc1)C(=O)N[C@H](C(=O)N[C@@H](CCCCN)C(=O)N1CCC[C@H]1C(=O)N[C@@H](CC(N)=O)C(=O)N[C@@H](CO)C(=O)N[C@@H](Cc1ccccc1)C(=O)O)C(C)C [3102.1127] (H-FRVVKPNSF-OH) | 91 nM | 108 nM | – | – |
| CC[C@H](C)[C@H](N)C(=O)N[C@@H](CC(C)C)C(=O)N[C@@H](Cc1c[nH]cn1)C(=O)N[C@@H](Cc1c[nH]cn1)C(=O)N[C@@H](Cc1c[nH]cn1)C(=O)N[C@@H](CCCNC(=N)N)C(=O)N[C@@H](CC(N)=O)C(=O)N[C@H](C(=O)N[C@@H](Cc1ccccc1)C(=O)O)C(C)C [3102.1250] (H-ILHHHRNVF-OH) | 13 nM | – | – | 1.3 nM |
| CSCC[C@H](NC(=O)[C@H](CC(=O)O)NC(=O)[C@@H](NC(=O)[C@H](Cc1ccccc1)NC(=O)[C@H](Cc1c[nH]cn1)NC(=O)[C@H](CCSC)NC(=O)[C@H](CO)NC(=O)[C@H](CCC(N)=O)NC(=O)[C@@H](N)Cc1ccccc1)[C@@H](C)O)C(=O)O [3102.1283] (H-FQSMHFTDM-OH) | 84 nM | – | – | 5.1 nM |
